“Also recorded” adds a separate entry of the source.
Legend:
[1] = tested on: PD-1/PD-L1 interaction on A375 cells; assay: Cell-based PD-1/PD-L1 inhibition (accessible PD-L1 by flow cytometry), A375; parameters: species or system human; settings: Homo sapiens, A-375; A375 stimulated with IFN-γ; 72 hours
Experimental: (§1) PD-1/PD-L1 Inhibition on Human Melanoma and Breast Cancer Cell Lines:
(§2) Cells (0.1×10^6 cells) were tested for PD-1/PD-L1 inhibition by co-incubation of hit compounds, DMSO (background), BMS-202 (Selleckchem) and anti-human PD-L1 (BioxCell, Clone 29E.2A3) (positive controls) for 72 hours in 2 ml DMEM medium. Non-confluent cell cultures were scraped into single-cell suspension, washed with PBS, and counted. Cells were subsequently stained with PD-1 fluorescent proxy for 30 minutes at 4° C., washed twice and resuspended in FACS buffer. Cells were analyzed using BD LSRFortessa (BD Biosciences) and data analyzed with FlowJo software for Mac (FlowJo, LLC 2013-2016). Mean fluorescence intensity (MFI) was derived from each sample. The PD-1/PD-L1 inhibition in cells was measured by a decrease in MFI relative to background.
(§3) The remaining accessible PD-L1 was determined by flow cytometry.

[2] = tested on: PD-1/PD-L1 interaction on MDA-MB-231 cells; assay: Cell-based PD-1/PD-L1 inhibition (accessible PD-L1 by flow cytometry), MDA-MB-231; parameters: species or system human; settings: Homo sapiens, 72 hours
Experimental: as §1, §2
The selected cell lines were incubated with the selected compounds to assess compound-binding affinities, and consequently PD-1/PD-L1 inhibition. The levels of remaining accessible PD-L1 in these cells were evaluated by FACS analysis using a fluorescence PD-1 proxy. To understand compound activity, different incubation times (24, 48 and 72 hours) were evaluated on MDA-MB-231 breast cancer cell line.
as §3

recombinant human PD-L1 = recombinant human PD-L1 (Homo sapiens (Human), UniProt Q9NZQ7); assay: Differential scanning fluorimetry (DSF) thermal denaturation; type: binding; settings: 100 μM compound, 1% DMSO
Experimental: DSF was performed in a C1000 Touch thermal cycler equipped with a CFX96 optical reaction module (Bio Rad). For all fluorescence measurements, samples contained recombinant human PD-L1 (ThermoFisher) at 500 μg/ml in phosphate buffered saline (PBS), pH 7.4, 5% (m/v) Mannitol, 5% (m/v) Trehalose, 0.02% (v/v) Tween® 80, 2.5-fold SYPRO® Orange, 1% (v/v) DMSO (Sigma-Aldrich) and 100 μM of each compound. The PCR plate was sealed with Optical-Quality Sealing Tape (Bio-Rad) and centrifuged at 300 g for 5 minutes. The DSF assay was carried out by increasing the temperature from 20 to 90° C., with a 1 second hold time every 0.2° C. and fluorescence acquisition using the FRET channel, after an initial incubation step of 10 minutes at 20° C. Control experiments in the absence of DMSO and/or compounds were routinely performed in each microplate.
Data were processed using CFX Manager Software V3.0 (Bio-Rad) and the GraphPad Prism 7. Temperature scan curves were fitted to a dose-response sigmoid function (Boltzmann equation) and the melting temperature (Tm values) were obtained from the midpoint of the transition. Normalization of the RFU was also performed to prevent distraction due to different maximum and minimum values upon compounds treatment. The RFU values from different data sets were converted to a common scale 0-1, where 0 represents the fluorescence of the native protein and 1 the fluorescence of the denatured protein. To monitor the binding properties towards each compound, DSF assays were run in the absence and presence of 100 μM compounds using 1% (v/v) DMSO as vehicle control.
To test this hypothesis, the melting temperature (Tm) of the PD-L1 was determined in thermal denaturation assays by differential scanning fluorimetry (DSF) and checked for a shift in the proteins' Tm (ΔTm) in the presence of the PD-L1 inhibitor candidates. The extent of temperature shift is proportional to the compounds' stabilizing effect and thereby used to infer inhibitors' affinity.

PD-1/PD-L1 interaction = PD-1/PD-L1 interaction (Homo sapiens (Human), UniProt Q9NZQ7); assay: HTRF PD-1/PD-L1 binding assay; type: biochemical; parameters: key to HTF assay (100 μM): +: positive compounds using 100 μM on HTRF
[3] = tested on: patient-derived melanoma (Mel4) spheroids with autologous PBMC; assay: 3D patient-derived melanoma spheroid - PBMC co-culture; type: cell-based, human; settings: vs αPD-L1 and untreated
Experimental: 3D Patient-Derived Tumor Spheroids—Lymphocyte Co-Culture:
After isolation of tumor cells, cells were washed and cultured for up to 3 days. This allowed the isolation of adherent cells that were then scrapped and seeded in Nunclon Sphera 96-well plate (Thermo Fisher Scientific) to create a unique uniform spheroid in each well. Spheroids were ready on day 2-5. Thereafter, spheroids were embedded in reduced growth Matrigel (Corning) with PBMC (1:100) and were left untreated or were treated with the small-molecule inhibitor Compound 69 or αPD-L1, dissolved in the appropriate cell culture medium.
3D co-culture was fixed with 4% paraformaldehyde and blocked by PBS with 2% (m/v) BSA. Thereafter, the samples were incubated with CD8 (MA5-16345—Invitrogen) (1:50) in PBS with 1% (v/v) Tween® 20 for 18 hours at 4° C. Then, 4 μg/ml of secondary antibody (A-11008, Invitrogen) were added, 3D spheroids were stained with Hoechst 33342 (10 μg/ml) for 20 minutes. […] The different z-stacks were merged and analyzed by Fiji-ImageJ.
The ability of PD-1/PD-L1 inhibitors (small-molecule inhibitor Compound 69 and αPD-L1) to promote CD8^+ T-cell infiltration into the tumor site was evaluated using a 3D co-culture system. […] The CD8^+ T-cell infiltration (green) was evaluated after 72 hours of co-culture by confocal microscopy. […]

Sequence of PD-1/PD-L1 interaction (Q9NZQ7 19-238): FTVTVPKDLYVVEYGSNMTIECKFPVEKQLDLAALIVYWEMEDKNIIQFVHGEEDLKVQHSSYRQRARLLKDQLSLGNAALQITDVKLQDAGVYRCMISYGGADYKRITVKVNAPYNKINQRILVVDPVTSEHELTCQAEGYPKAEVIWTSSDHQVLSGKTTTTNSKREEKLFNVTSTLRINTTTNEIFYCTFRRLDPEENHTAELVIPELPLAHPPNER
Sequence of recombinant human PD-L1 (Q9NZQ7 19-238): as above

## CCCCCN(CCCCC)C(C)C(=O)c1cc(C)c2ccc3cc(C(C)C)ccc3c2c1.Cl (stereo not drawn) [Compound 69]
[1]
  IC50: 1 µM
[2]
  IC50: 1 µM
Recombinant human PD-L1
  thermal shift / stabilization of PD-L1: stabilization of PD-L1
PD-1/PD-L1 interaction; HTRF dose-response starting from 100 μM
  IC50: 0.196 µM
PD-1/PD-L1 interaction; Table A, HTRF dose-response, NA = Not applicable (No dose-response effect)
  IC50: 0.196 µM
PD-1/PD-L1 interaction; Table B, HTRF dose-response, NA = no dose-response effect
  IC50: 0.196 µM
PD-1/PD-L1 interaction; compounds at 100 μM, hits defined as at least 50% inhibition of PD-1/PD-L1 interaction
  HTF assay (100 μM): +
[3]; 72 hours of co-culture
  CD8+ T cell infiltration within the tumor spheroid: higher CD8^+ T cell infiltration
[3]; Mel4 spheroids
  sprouting of patient-derived melanoma cells: inhibited the melanoma cells sprouting; also recorded: strongly inhibited the sprouting
